Patent publication EP1634598A1, “Use of piperazine derivatives and analogues for the manufacture of a medicament for the prophylaxis and/or treatment of disorders of food ingestion” (LABORATORIOS DEL DR. ESTEVE, S.A., priority 2004, dated 2006)

Key:
[1] = tested on: a selection of other relevant receptors; conditions: according to US2003/0171347A1, page 7, table2 and page 8, table 3; cited from earlier work
[2] = tested on: Obese Rats (DIO); experiment: Chronical treatment of obese rats (DIO); format: in vivo; conditions: 50 mg/Kg i.p., one injection per day for 9 days, followed for 10 more days, compared to Saline, data only in Figures 1 to 4
Description: Obese Rats (DIO) were treated for 9 days intraperitoneally (i.p.) one injection per day with Saline, with BD-1063 at 50 mg/Kg and PRE-084 at 25 mg /Kg, a well known […]. During that time each day and at some points during the following 10 days the weight giving the difference in weight (referring to the day of starting the treatment) was determined, as were the blood glucose levels, blood level of cholesterol, blood level of Triglycerides (TG).

For `CN(C)CCN(C)CCc1ccc(Cl)c(Cl)c1` [BD-1047, N1-(3,4-dichlorophenethyl)-N1,N2,N2-trimethylethane-1,2-diamine], the “binding to a selection of other relevant receptors” value [1] is listed as “no or only slight binding”.

In the case of `CN1CCN(CCc2ccc(Cl)c(Cl)c2)CC1` [BD-1063, 1-(3,4-dichlorophenethyl)-4-methylpiperazine], the “binding to a selection of other relevant receptors” value [1] is listed as “no or only slight binding” and the “effect on the weight (in weight difference), blood glucose levels, blood level of cholesterol, blood level of Triglycerides (TG)” value [2] is listed as “highly effective”.
